System: AChE
Experiment: ELISA, binding of biotinylated-Aβ42 to immobilised AChE
Parameters: species or system human
Source text: Most of the material used was purchased as we previously reported. Nitrocellulose membranes, PBS, ATP, recombinant human AChE (C1682, UniProt accession ID: C9JD78), streptavidin‐conjugated horseradish peroxidase (HRP) conjugate, Ponceau S solution, PMSF, and HS sodium salt from bovine kidney were purchased from Sigma‐Aldrich (St. Louis, MO, USA). Mouse IgG isotype control (mIgG), ultra 3,3′,5,5′‐tetramethylbenzidine (TMB)‐ELISA substrate solution, Halt Protease and Phosphatase Inhibitor Cocktail, HN polyclonal antibody (rabbit, PA1‐41610), and Nunc MaxiSorpTM 96‐well flat bottom plates were from Thermo Fisher (Waltham, MA, USA). […]
ELISAs were carried out as we previously reported. […] TBST was then used to wash the wells 4× before proceeding in one of two ways: (a) biotinylated samples were analyzed by adding 100 µL streptavidin–HRP conjugate in TBST (1 : 2500 dilution) to the samples followed by incubation for 3 h at RT on a shaker, or (b) samples without biotin were analyzed by adding 100 µL TBST containing the primary antibody as per the manufacturer's recommendation, incubating for 3 h at RT on a shaker, followed by washing the wells 4× with TBST. […] The reaction was stopped with 100 µL 2 M H2SO4 after incubating at RT for 0.5–15 min, resulting in a yellow color change, measured by absorbance at 450 nm. […] Statistical analysis was determined by the […]

Molecule	effect of ATP on affinity of AChE to Aβ42 (200 μM ATP, 30 min preincubation RT, pH 7.5, 10 mM MgCl2, three experiments in triplicate, Fig. 3B)	effect of HS on binding of Aβ42 to AChE (AChE 10 nM on wells, biotinylated-Aβ 1 μM, increasing HS, three independent assays, Fig. 2C)
Nc1ncnc2c1ncn2[C@@H]1O[C@H](COP(=O)(O)OP(=O)(O)OP(=O)(O)O)[C@@H](O)[C@H]1O [ATP, Adenosine triphosphate]	reduced the affinity	
heparan sulfate [HS]		No effects
